Reference: patent US20110217265A1, “Screening for Inhibitors of HCV Amphipathic Helix (AH) Function” (priority 2008, published 2011)

Columns and labels:
[1] = system: Huh7.5 cells; assay: Alamar Blue cell viability assay; type: cell-based, human
Experimental: Antiviral Assays of Compounds. Subconfluent Huh7.5 cells were trypsinized and collected by centrifugation at 700 g for 5 min. The cells were then washed three times in ice-cold RNasefree PBS buffer (BioWhittaker) and resuspended at 1.5×10^7 cells·ml^−1 in PBS buffer. Wild-type FL-J6/JFH-5′C19Rluc2AUbi and Bart79I-luc RNAs for electroporation were generated by in vitro transcription of XbaI (FL-J6/JFH-5′C19Rluc2AUbi) and ScaI (Bart791-luc)-linearized DNA templates using the T7 MEGAscript kit (Ambion), followed by phenol-chloroform purification and DEPC water suspension, 5 μg of RNA were mixed with 400 μl of washed Huh7.5 cells in a 2-mm-gap cuvette (BTX) and immediately pulsed (0.82 kV (FL-J6/JFH-5′C19Rluc2AUbi) and 0.68 kV (Bart79I-luc), five […] pulses) with a BTX-830 electroporator. After 10 min recovery at 25° C., pulsed cells were diluted into 20 ml of pre-warmed growth medium. Cells from several electroporations were pooled to a common stock and seeded in 96-well plates (17,000-20,000 cells per well). After 24 hr, compounds were added to the cells and media changes were performed daily with fresh compounds. After 72 hr of treatment, cells were incubated for 2 hr at 37° C. in the presence of 10% Alamar Blue reagent (TREK Diagnostic Systems) to assess for cytotoxicity. […] The signal was normalized relative to untreated samples. Viral RNA replication was determined using Renilla (FL-J6/JFH-5′C19Rluc2AUbi) or firefly (Bart791-luc) luciferase assays, according to the manufacturer's (Promega) directions. The same samples subjected to the viability assay described below were analyzed in this assay. According to the manufacturer protocol, cells were washed with PBS buffer and shaken at room temperature for 15 min in 20 μl of lysis buffer. Reporter assays were performed directly in the wells of the culture plates by injecting 100 μl of the assay substrate into each well. Luminescence was measured over 10 seconds with a 2-second delay using a Berthold LB 96 V luminometer. Signal was normalized relative to untreated samples or samples grown in the presence of the corresponding concentration of DMSO. Experiments were repeated three times, each time with 4 replicates.

[2] = system: 2a HCV RNA replicon; assay: 2a HCV RNA replicon assay (FL-J6/JFH-5'C19Rluc2AUbi, luciferase); type: cell-based, Hepatitis C Virus genotype 2a; settings: Hepatitis C virus, read-out: 2a (%) Percent of virus activity remaining in the presence of the compound
From the text: Plasmids. Bart79I, a high-efficiency subgenomic replicon of HCV (28), harbors the neomycin resistance gene (neo) and the HCV nonstructural proteins. The Bart-Luciferase plasmid, Bart79I-luc, was cloned from the Bart791 parent (29) and the pGL3-Basic parent (Promega). In brief, a NotI site was introduced after the 15th amino acid of Core in Bart791 using PCR mutagenesis. The plasmid pcDNA3.1-NS4B, which encodes the Con1 NS4B sequence and was used to study the protein stability of the wild type and mutant NS4Bs, was described previously. To introduce the M2 mutation into the 4BAH2 of plasmids encoding HCV replicons or NS4B, the nucleotide sequence GCG that encodes for alanine at NS4B amino acid position 51 was changed to GAG (encoding for glutamate) and the nucleotide sequence TGG that encodes for tryptophan at amino acid position 55 was changed to GAT (encoding for aspartate) through the use of Quick-ChangeTMXL site-directed mutagenesis kit (Stratagene, La Jolla, Calif.) as described by the manufacturer and confirmed by sequencing. FL-J6/JFH-5′C19Rluc2AUbi, which is a monocistronic, full-length HCV genome that expresses Renilla luciferase (Rluc) and was derived from the previously described infectious genotype 2a HCV genome J6/JFH1.
Antiviral Assays of Compounds. Subconfluent Huh7.5 cells were trypsinized and collected by centrifugation at 700 g for 5 min. The cells were then washed three times in ice-cold RNasefree PBS buffer (BioWhittaker) and resuspended at 1.5×10^7 cells·ml^−1 in PBS buffer. Wild-type FL-J6/JFH-5′C19Rluc2AUbi and Bart79I-luc RNAs for electroporation were generated by in vitro transcription of XbaI (FL-J6/JFH-5′C19Rluc2AUbi) and ScaI (Bart791-luc)-linearized DNA templates using the T7 MEGAscript kit (Ambion), followed by phenol-chloroform purification and DEPC water suspension, 5 μg of RNA were mixed with 400 μl of washed Huh7.5 cells in a 2-mm-gap cuvette (BTX) and immediately pulsed (0.82 kV (FL-J6/JFH-5′C19Rluc2AUbi) and 0.68 kV (Bart79I-luc), five […] pulses) with a BTX-830 electroporator. After 10 min recovery at 25° C., pulsed cells were diluted into 20 ml of pre-warmed growth medium. Cells from several electroporations were pooled to a common stock and seeded in 96-well plates (17,000-20,000 cells per well). After 24 hr, compounds were added to the cells and media changes were performed daily with fresh compounds. After 72 hr of treatment, cells were incubated for 2 hr at 37° C. in the presence of 10% Alamar Blue reagent (TREK Diagnostic Systems) to assess for cytotoxicity. Plates were then scanned and fluorescence was detected by using a FLEXstation II 384 (Molecular Devices). The signal was normalized relative to untreated samples. Viral RNA replication was determined using Renilla (FL-J6/JFH-5′C19Rluc2AUbi) or firefly (Bart791-luc) luciferase assays, according to the manufacturer's (Promega) directions. The same samples subjected to the viability assay described below were analyzed in this assay. According to the manufacturer protocol, cells were washed with PBS buffer and shaken at room temperature for 15 min in 20 μl of lysis buffer. Reporter assays were performed directly in the wells of the culture plates by injecting 100 μl of the assay substrate into each well. Luminescence was measured over 10 seconds with a 2-second delay using a Berthold LB 96 V luminometer. Signal was normalized relative to untreated samples or samples grown in the presence of the corresponding concentration of DMSO. Experiments were repeated three times, each time with 4 replicates.

In the case of `CC(C)CN(C)c1nc(N)c(C(=O)NCc2ccsc2)nc1Cl.Cl` [ID 148, 3-amino-6-chloro-5-(isobutyl(methyl)amino)-N-(thiophen-3-ylmethyl)pyrazine-2-carboxamide hydrochloride], the “Cell Viability (%), alamar blue” value ([1]; 5 μM) is reported as 99%, the “Cell Viability (%), alamar blue” value ([1]; 10 μM) is reported as 90% and the activity at 5 µM [2] is reported as 69%. The activity at 10 µM [2] was 53%.
In the case of `CC(C)CN(C)c1nc(N)c(C(=O)NCc2nccs2)nc1Cl.Cl` [ID 149, 3-amino-6-chloro-5-(isobutyl(methyl)amino)-N-(thiazol-2-ylmethyl)pyrazine-2-carboxamide hydrochloride], the “Cell Viability (%), alamar blue” value ([1]; 5 μM) is reported as >100%, the “Cell Viability (%), alamar blue” value ([1]; 10 μM) is reported as >100% and the activity at 5 µM [2] is reported as 68%. The activity at 10 µM [2] was 50%.
With `CC(C)CN(C)c1nc(N)c(C(=O)NCc2cccs2)nc1Cl` [ID 150, 3-amino-6-chloro-5-(isobutyl(methyl)amino)-N-(thiophen-2-ylmethyl)pyrazine-2-carboxamide 2,2,2-trifluoroacetate] the “Cell Viability (%), alamar blue” value ([1]; 5 μM) was >100%, the “Cell Viability (%), alamar blue” value ([1]; 10 μM) was 77% and the activity at 5 µM [2] was 65%. It also gave an activity at 10 µM [2] of 48%.
With `CC(C)CN(C)c1nc(N)c(C(=O)Nc2ccon2)nc1Cl.Cl` [ID 200, 3-amino-6-chloro-5-(isobutyl(methyl)amino)-N-(isoxazol-3-yl)pyrazine-2-carboxamide hydrochloride] the “Cell Viability (%), alamar blue” value ([1]; 5 μM) was 96%, the “Cell Viability (%), alamar blue” value ([1]; 10 μM) was 96% and the activity at 5 µM [2] was 77%. The activity at 10 µM [2] was 65%.
For `CC(C)CN(C)c1nc(N)c(C(=O)Nc2ccccn2)nc1Cl.Cl` [ID 201, 3-amino-6-chloro-5-(isobutyl(methyl)amino)-N-(pyridin-2-yl)pyrazine-2-carboxamide hydrochloride], the “Cell Viability (%), alamar blue” value ([1]; 5 μM) was >100%, the “Cell Viability (%), alamar blue” value ([1]; 10 μM) was 92% and the activity at 5 µM [2] was 74%. It also gave an activity at 10 µM [2] of 48%.
In the case of `CC(C)CN(C)c1nc(N)c(C(=O)Nc2ccncc2)nc1Cl.Cl` [ID 203, 3-amino-6-chloro-5-(isobutyl(methyl)amino)-N-(pyridin-4-yl)pyrazine-2-carboxamide hydrochloride], the “Cell Viability (%), alamar blue” value ([1]; 5 μM) is reported as 92%, the “Cell Viability (%), alamar blue” value ([1]; 10 μM) is reported as 90% and the activity at 5 µM [2] is reported as 68%. For the same compound, the activity at 10 µM [2] was 59%.
With `CC(C)CN(C)c1nc(N)c(C(=O)NCc2ccccn2)nc1Cl.Cl` [ID 204, 3-amino-6-chloro-5-(isobutyl(methyl)amino)-N-(pyridin-2-ylmethyl)pyrazine-2-carboxamide hydrochloride] the “Cell Viability (%), alamar blue” value ([1]; 5 μM) was >100%, the “Cell Viability (%), alamar blue” value ([1]; 10 μM) was 99% and the activity at 5 µM [2] was 66%. For the same compound, the activity at 10 µM [2] was 60%.
`CC(C)CN(C)c1nc(N)c(C(=O)Nc2nncs2)nc1Cl.Cl` [ID 205, 3-amino-6-chloro-5-(isobutyl(methyl)amino)-N-(1,3,4-thiadiazol-2-yl)pyrazine-2-carboxamide hydrochloride] was tested, and the “Cell Viability (%), alamar blue” value ([1]; 5 μM) was 88%, the “Cell Viability (%), alamar blue” value ([1]; 10 μM) was 67% and the activity at 5 µM [2] was 42%. The activity at 10 µM [2] was 17%.
With `Cc1ccncc1NC(=O)c1nc(Cl)c(N(C)CC(C)C)nc1N.Cl` [ID 235, 3-amino-6-chloro-5-(isobutyl(methyl)amino)-N-(4-methylpyridin-3-yl)pyrazine-2-carboxamide hydrochloride] the “Cell Viability (%), alamar blue” value ([1]; 5 μM) was 84%, the “Cell Viability (%), alamar blue” value ([1]; 10 μM) was 68% and the activity at 5 µM [2] was 48%. For the same compound, the activity at 10 µM [2] was 22%.
For `Cc1cc(NC(=O)c2nc(Cl)c(N(C)CC(C)C)nc2N)no1.Cl` [ID 236, 3-amino-6-chloro-5-(isobutyl(methyl)amino)-N-(5-methylisoxazol-3-yl)pyrazine-2-carboxamide hydrochloride], the “Cell Viability (%), alamar blue” value ([1]; 5 μM) was 96%, the “Cell Viability (%), alamar blue” value ([1]; 10 μM) was 78% and the activity at 5 µM [2] was 92%. For the same compound, the activity at 10 µM [2] was 51%.
For `Cc1cc(NC(=O)c2nc(Cl)c(N(C)CC(C)C)nc2N)cnc1Cl` [ID 291, 3-amino-6-chloro-N-(6-chloro-5-methylpyridin-3-yl)-5-(isobutyl(methyl)amino)pyrazine-2-carboxamide bis(2,2,2-trifluoroacetate)], the “Cell Viability (%), alamar blue” value ([1]; 5 μM) was 79%, the “Cell Viability (%), alamar blue” value ([1]; 10 μM) was 53% and the activity at 5 µM [2] was 59%. The activity at 10 µM [2] was 21%.
In the case of `COc1cc(C)c(NC(=O)c2nc(Cl)c(N(C)CC(C)C)nc2N)cn1` [ID 294, 3-amino-6-chloro-5-(isobutyl(methyl)amino)-N-(6-methoxy-4-methylpyridin-3-yl)pyrazine-2-carboxamide bis(2,2,2-trifluoroacetate)], the “Cell Viability (%), alamar blue” value ([1]; 5 μM) is reported as 100%, the “Cell Viability (%), alamar blue” value ([1]; 10 μM) is reported as 68% and the activity at 5 µM [2] is reported as 58%. For the same compound, the activity at 10 µM [2] was 22%.
With `CC(C)CN(C)c1nc(N)c(C(=O)Nc2ccccc2)nc1Cl` [ID 295, 3-amino-6-chloro-5-(isobutyl(methyl)amino)-N-phenylpyrazine-2-carboxamide] the “Cell Viability (%), alamar blue” value ([1]; 5 μM) was >100%, the “Cell Viability (%), alamar blue” value ([1]; 10 μM) was 90% and the activity at 5 µM [2] was 65%. The activity at 10 µM [2] was 47%.
In the case of `Cc1cncc(NC(=O)c2nc(Cl)c(N(C)CC(C)C)nc2N)c1` [ID 296, 3-amino-6-chloro-5-(isobutyl(methyl)amino)-N-(5-methylpyridin-3-yl)pyrazine-2-carboxamide bis(2,2,2-trifluoroacetate)], the “Cell Viability (%), alamar blue” value ([1]; 5 μM) is reported as 100%, the “Cell Viability (%), alamar blue” value ([1]; 10 μM) is reported as 76% and the activity at 5 µM [2] is reported as 52%. It also gave an activity at 10 µM [2] of 18%.
In the case of `Cc1cc(F)ncc1NC(=O)c1nc(Cl)c(N(C)CC(C)C)nc1N` [ID 297, 3-amino-6-chloro-N-(6-fluoro-4-methylpyridin-3-yl)-5-(isobutyl(methyl)amino)pyrazine-2-carboxamide bis(2,2,2-trifluoroacetate)], the “Cell Viability (%), alamar blue” value ([1]; 5 μM) is reported as 94%, the “Cell Viability (%), alamar blue” value ([1]; 10 μM) is reported as 67% and the activity at 5 µM [2] is reported as 58%. For the same compound, the activity at 10 µM [2] was 16%.
For `COC(=O)c1cccc(NC(=O)c2nc(Cl)c(N(C)CC(C)C)nc2N)c1.O=C(O)C(F)(F)F` [ID 343, methyl 3-(3-amino-6-chloro-5-(isobutyl(methyl)amino)pyrazine-2-carboxamido)benzoate 2,2,2-trifluoroacetate], the “Cell Viability (%), alamar blue” value ([1]; 5 μM) was 98%, the “Cell Viability (%), alamar blue” value ([1]; 10 μM) was 93% and the activity at 5 µM [2] was 65%. It also gave an activity at 10 µM [2] of 38%.
